# Data published in patent US20030119812A1, “Method for decreasing capillary permeability in the retina” (priority 2001, published 2003).
# System: BRB breakdown in mice exposed to vascular endothelial growth factor (VEGF)
# Assay: BRB breakdown quantitated with [3H]-mannitol tracer in mice given intravitreal VEGF
# Assay type: in vivo, C57B/J6 mice
# Description: Intraperitoneally administered radiolabeled tracer can be used to quantitate BRB breakdown in mice exposed to vascular endothelial growth factor (VEGF). This technique is particularly advantageous with neonatal mice because of the technical difficulty involved with intravascular injections. Also, the comparison of retinas from injected and control eyes to tissues without a blood-tissue barrier corrects for variations in the amount of isotope injected or absorbed into the circulation.
# Ten six- to seven-week-old C57B/J6 mice (Jackson Labs, Bar Harbor, Me.) are weighed to determine the proper dosage of anesthesia and tracer required. Mice are anesthetized with a solution containing 25 mg/kg ketamine (Ketaset; Fort Dodge Animal Health, Fort Dodge, Iowa) and 4 mg/kg rompun (Tranquived; Vedco, St. Joseph, Mo.) diluted 1:10 in saline prior to injection. Five mice are subjected to gavage with 50 mg/kg N-benzoyl staurosporine for three days prior to intravitreal administration of VEGF; the other five mice are subjected to gavage with vehicle.
# Tropicamide (1%) is used to dilate the pupils of anesthetized mice. Under a dissecting microscope, a Harvard injector (PLI 100) is used with a glass pipet pulled to a diameter of 13-20 μm to inject 1 μl of saline containing VEGF (R&D Systems, Minneapolis, Minn.). The eyes are entered posterior to the limbus, directing the pipet toward the optic nerve. The solution is then deposited just in front of the retina without inflicting any damage to the lens. […]
# One ml NCSII (Amersham, Chicago, Ill.) solubilizing solution is added to each vial and the vials are incubated overnight in a 50° C. water bath. […] The specimens are counted on a Wallac 1409 Liquid Scintillation Counter (Gaithersburg, :Md.).
# The counts per mg tissue are determined for treated (with N-benzoyl staurosporine) and untreated retina, lung, and kidney. Ratios of these values for treated or untreated retina/lung or kidney and for lung/kidney are calculated. […]
smiles,measurement,setting,value
CO[C@@H]1[C@H](N(C)C(=O)c2ccccc2)C[C@H]2O[C@]1(C)n1c3ccccc3c3c4c(c5c6ccccc6n2c5c31)C(=O)NC4 [N-benzoyl staurosporine],radioactivity in the retinas (leakage of radioactive tracer out of the retinal blood vessels),"50 mg/kg N-benzoyl staurosporine by gavage versus vehicle gavage, before intravitreal VEGF",significantly less radioactivity
same,retina/kidney ratio,"50 mg/kg by gavage for three days before intravitreal VEGF 10^-6 M, [3H]-mannitol at 6 hours, VEGF/vehicle 0.6806±0.1060, Student-t value 0.0201",0.3881±0.0436
same,retina/lung ratio (cpm per mg of retina/cpm per mg of lung),"50 mg/kg by gavage for three days before intravitreal VEGF 10^-6 M, [3H]-mannitol at 6 hours, VEGF/vehicle 0.8785±0.0946, Student-t value 0.0467",0.6326±0.0656
